Values joined by “and” are separate entries in the source; they are usually repeats but may differ in a detail not shown here. Equal values may be shown once. Active and inactive are the calls of the source.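 How the source made its calls: active means compounds giving half or more protection of infected cells from virus-caused growth loss, again on retest; inactive means the rest.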
Tested on: CEM cells HIV-1 protection, formazan growth assay
Test: NCI AIDS Antiviral Assay
Conditions: for IC50: measured here: growth of uninfected CEM cells
How it was run: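 Human CEM cells, uninfected and HIV-1-infected, exposed to five drug concentrations; growth measured by soluble formazan assay and scored as percent protection from infection, with protecting compounds retested.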

Compound	EC50	IC50 [µM]	outcome
Cc1cc(=O)[nH]c(NN2C(Cl)C(=O)C2c2cccc([N+](=O)[O-])c2)n1 (stereo unspecified)	> 53.7 µM	15.5	
Cc1ccc[n+](N)c1N	> 1000 µM	> 1000	
N=c1ccn2c(n1)OC1C(O)C(CO)OC12 (stereo unspecified)	37.2 µM and > 2 µM		
O=C([O-])C1([n+]2c(-c3ccccc3)cc(-c3ccccc3)cc2-c2ccccc2)CC1	> 200 µM	81.3	
COc1cc2cc(c1Cl)N(C)C(=O)CC(OC(=O)C(C)N(C)C(=O)C(C)C)C1(C)OC1C(C)C1CC(O)(NC(=O)O1)C(OC)/C=C/C=C(C)C2OC (stereo unspecified)			inactive
CC1=C[C@H]2C3=C(OC(C)(C)[C@H]2CC1)C(=O)c1c(cc(O)c(C)c1O)C3=O	> 182 µM	34.7	
COc1cc(C)cc2c(-c3c(O)cc(O)c4c3C[C@H](C)N[C@H]4C)cc(-c3cc(-c4c(O)cc(O)c5c4C[C@H](C)N[C@H]5C)c4cc(C)cc(OC)c4c3O)c(O)c12	14.1 µM	95.5	
CCCNC(=S)/N=C\c1c(O)c2ccccc2oc1=O	> 200 µM	> 200	
Cc1cc2nnc(-c3ccc(C#N)cc3)n2c2nnnn12	> 200 µM		
O=P(O)(O)C(CSc1ccccc1)P(=O)(O)O			inactive
CCN(CC)CCN(C(=O)c1ccc(F)cc1)c1ccccc1N	> 200 µM	> 200	
O=C1CCc2ccc3c(c21)CC1(Cc2ccccc2C1)C3	> 200 µM	> 200	
N#Cc1c(N2CCCC2)ncn(Cc2ccccc2)c1=O	> 200 µM	> 200	
O=C(O)Cc1cccc2c(=O)c3cccc([N+](=O)[O-])c3[nH]c12	> 200 µM	102	
Cc1ccc(-c2c(C#N)c(S)n(NS(=O)(=O)c3ccccc3)c(=O)c2C#N)cc1	> 200 µM	18.6	
Nc1cc(F)ccc1CC(=O)O	> 200 µM	> 200	
O=C(O)CN1CCNCCN(CP(=O)(O)O)CC1	> 200 µM	10.5	
CN1C(C(=O)Nc2nccs2)=C(O)c2ccccc2S1(=O)=O	> 200 µM	191	
O=C(N/N=C\c1ccccn1)c1ccncc1	> 200 µM	91.2	
N#Cc1cc2c(n(C3OC(CO)C(O)C(O)C3O)c1=S)CCC2 (stereo unspecified)	> 200 µM	> 200	
Cc1nc2cc3c(cc2n2cccc12)oc1ccccc13	> 44.7 µM	35.5	
CN(C)C(=S)/N=c1\ss/c(=N\S(=O)(=O)c2ccccc2)n1C			inactive

Compound	EC50	IC50 [µM]	outcome
CC1OC(=O)C2CC3CCCCC3C(/C=C/C3CCCC(C)N3C)C12 (stereo unspecified)			inactive
CCOc1ccc(C(C2=C(O)c3ccccc3C(=O)C2=O)C2=C(O)c3ccccc3C(=O)C2=O)cc1OC	> 200 µM	29.5	
CCCCOC/N=C(/N)NC#N	> 525 µM	> 525	
OC1C(O)C2CC1C1C2C2(Cl)C(Cl)=C(Cl)C1(Cl)C2(Cl)Cl (stereo unspecified)	> 200 µM	12.6	
CCCCCCCCCCCCOC1OC(CO)C(O)C(O)C1O (stereo unspecified)	> 85.1 µM	38	
COc1ccc(C2SC(=S)N(c3ccc(Cl)cc3)N2c2ccc(Cl)cc2)cc1 (stereo unspecified)	> 200 µM	24	
COc1ccc(C)[n+]([O-])n1	> 200 µM	> 200	
O=C1NC(=O)C(F)(n2cc(F)c(=O)[nH]c2=O)C(O)N1 (stereo unspecified)	> 200 µM	55	
Cc1ccc(NC=O)cc1F			inactive
O=C1c2cscc2C(=O)c2cscc21	> 2 µM	0.339	
C(=C\C(SCc1ccccc1)SCc1ccccc1)/c1ccccc1	> 200 µM	> 200	
COc1ccc2c3c1C(=O)CCC3CO2 (stereo unspecified)			inactive
COc1ccc(C(=O)C(C(=O)CCC(=O)Nc2cccc(Cl)c2)c2ccc(OC)cc2)cc1 (stereo unspecified)	> 15.5 µM	> 15.5	
CC1CCC2C1(C)CCC1C2(C)CCC2(C)C3CC(C)(C)CCC3(C)CCC12C (stereo unspecified)	93.3 µM	> 100	
CNC(=O)c1n[nH]n(C2CCCCC2)c1=S			inactive
CCOC(=O)C1=NN(c2ccccc2)C(=O)/C1=C\N1CC(=O)NC1=S	> 200 µM	> 100	
O=C1Cc2ccccc2N1C1c2ccccc2C=Cc2ccccc21	> 200 µM	21.4	
Oc1ccc(C(O)(c2ccccc2)c2ccccc2)cc1	> 67.6 µM	41.7	
COC1/C=C/OC2(C)Oc3c(C)c(O)c4c(O)c(cc(OCC(=O)N(C)CCCCC(=O)O)c4c3C2=O)NC(=O)/C(C)=C/C=C/C(C)C(O)C(C)C(O)C(C)C(OC(C)=O)C1C (stereo unspecified)	> 200 µM	19.1	
CC(C)CC(NC(=O)C(C)(CI)Cc1ccccc1)C(=O)Nc1ccccc1 (stereo unspecified)	> 200 µM	170	
CCOC1(OCC)CS(=O)(=O)C1c1ccccc1 (stereo unspecified)	> 661 µM	> 661	
C/C(O)=C(/C=NC(=S)C(N)=S)C(=O)Nc1ccccc1	> 200 µM	102	

Compound	EC50	IC50 [µM]	outcome
Cn1cc(NC(=O)Nc2cc(C(=O)Nc3cc(C(=O)Nc4cc(C(=O)Nc5ccc6cc(S(=O)(=O)O)cc(S(=O)(=O)O)c6c5)n(C)c4)n(C)c3)n(C)c2)cc1C(=O)Nc1cc(C(=O)Nc2cc(C(=O)Nc3ccc4cc(S(=O)(=O)O)cc(S(=O)(=O)O)c4c3)n(C)c2)n(C)c1	0.977 µM	117	
CC[C@@]1(O)C(=O)OCc2c1cc1n(c2=O)Cc2cc3cc(OC)ccc3nc2-1	> 0.1 µM	0.0186	
COc1ccc(-c2sc(/N=C/c3ccc(-c4ccccc4)cc3)c(C#N)c2C)cc1OC	> 200 µM	30.2	
Cc1cc2c(c(C(N)=O)c1C)-c1ccccc1C2=O	> 102 µM	> 102	
CC(C)CCC[C@@H](C)C1CCC2[C@@H]3CCC4C[C@@H](NS(C)(=O)=O)CC[C@]4(C)C3CC[C@@]21C (stereo partly specified)	> 200 µM	> 200	
C[N+]12CCCc3cccc(c31)CCC2	> 794 µM	182	
N=C(CN1CCCCC1)N1CCCCC1	> 200 µM	> 200	
COc1ccc(/C=C2\CN(C)C/C(=C\c3ccc(OC)cc3)C2=O)cc1	> 200 µM	85.1	
O=C(CSc1nnc(Cc2ccccc2)o1)Nc1ccccc1	> 209 µM	> 209	
COc1ccc([C@H]2Oc3cc(OCc4ccccc4)c(O)cc3[C@@H]2C)c(OC)c1	> 200 µM	38.9	
COc1cccc(OC)c1/C=C1\OC(=O)c2cccc(OC)c21	> 20 µM	1.17	
NC(=S)N/N=C(/CC(=O)c1ccccc1)C(=O)Nc1ccc(Cl)c(Cl)c1	> 87.1 µM	> 87.1	
CC(=O)Nc1cc(S(=O)(=O)O)cc2cc(S(=O)(=O)O)c(N=Nc3ccc(C(=O)Nc4ccc(S(=O)(=O)O)cc4)cc3)c(O)c12			inactive
Cc1nnc(SCC2=C(C(=O)O)N3C(=O)C(NC(=O)Cn4cnnn4)C3SC2)s1 (stereo unspecified)	> 200 µM	> 200	
CCC[C@H]1C(=O)N=C(N)N1C(=O)OCc1ccccc1	> 200 µM	> 200	
CC(=O)CNC(=O)OC(C)(C)C			inactive
C/C(=N/NC(=S)N(Cc1ccccn1)Cc1ccccn1)c1cnccn1	0.2 µM	0.339	
O=C1/C(=C/c2ccc(F)cc2)CNC/C1=C\c1ccc(F)cc1	> 15.1 µM	0.288	
N#CC1=C(Nc2ccccc2)SC=C(c2ccccc2)NC1=NCc1ccccc1	> 200 µM	97.7	
Cc1nc(C)c(N2CCN(S(N)(=O)=O)CC2)c(=O)[nH]1	> 200 µM	> 200	
O=C1OC2(c3ccc(O)cc3Oc3cc(O)ccc32)c2ccccc21	> 50.1 µM	> 50.1	
O=C1[O][Hg][c]2cccc3cccc1c23			inactive

Compound	EC50	IC50 [µM]	outcome
CC12C(C(=O)O)C(=O)C(C(=O)O)C1(C)C(C(=O)O)C(=O)C2C(=O)O (stereo unspecified)	> 525 µM	398	
CC1=NN(C(=O)c2ccccc2O)C(=O)/C1=C/c1ccc(O)cc1	> 30.9 µM	0.0589	
CC(=O)OC12c3ccccc3-c3ccccc3C1C1C(=O)OC(=O)C12 (stereo unspecified)	> 282 µM	> 282	
CCCC(=N\N=C(N)N)/C(C)=N/N=C(N)N	> 79.4 µM	> 79.4	
COc1ccc(/C(=N/Nc2nc3ccccc3[nH]2)C(=O)O)cc1	> 200 µM	> 200	
COc1cc(OC)c2nccc(NCCCN(C)C)c2c1[N+](=O)[O-]	> 200 µM	93.3	
CN1N(c2ccccc2)C(=O)C2=NC=C(C(=O)c3ccc(Cl)cc3)C(=N)C21C (stereo unspecified)	> 200 µM	> 200	
O=C(O)c1ccc(CS(=O)(=O)c2ccc([N+](=O)[O-])cc2)cc1	> 22.4 µM	> 22.4	
S=C1Cc2c(-c3ccccc3)cc(-c3cccc(Cl)c3)nc2-c2ccccc2N1			inactive
C/C(=N\NC(=O)C[n+]1ccccc1)c1sc(-c2nc(C)c(/C(C)=N/NC(=O)C[n+]3ccccc3)s2)nc1C	> 30.2 µM	> 30.2	
Cn1c(-c2ccccc2)c(CCNC(=O)C2CCC2)c2ccccc21	> 200 µM	31.6	
C[C@@H](Br)[C@@H]1CC[C@H]2c3[nH]c4ccccc4c3CCN2C1	> 200 µM	17.4	
O=C1OCC(O)=C1C(c1ccc(Cl)cc1)c1cc2c(cc1O)OCO2 (stereo unspecified)	> 200 µM	> 200	
CCc1cc2c(c3c1CCCC3)CC1(Cc3ccc(C(=O)OC)cc3C1)C2 (stereo unspecified)	> 200 µM	> 200	
CCOC(=O)[C@@]12C(C)=CC(=O)O[C@]1(C)C1C(=O)NC(=O)C12 (stereo partly specified)	> 851 µM	> 851	
CCOC(=O)CC1C(O)C(=O)N(C)C1c1ccccc1 (stereo unspecified)			inactive
COc1cc([N+](=O)[O-])ccc1N1C(=O)C2c3[nH]c4ccccc4c3C3CCC(C(C)(C)C)CC3C2C1=O (stereo unspecified)	> 200 µM	138	
CC(NC(C#N)CC12CC3CC(CC(C3)C1)C2)c1ccccc1 (stereo unspecified)	> 200 µM	41.7	
Cc1nnc2n1-c1ccccc1-c1[nH]c3ccccc3c1C2	> 200 µM	22.4	
CCC1CN2CCc3cc(OC)c(OC)cc3C2CC1CC1c2cc(OC)c(OC)cc2CCN1C(=O)CNC(=O)OC(C)(C)C (stereo unspecified)			inactive
CC(=O)OC1(C#N)CC2OC1C1C2N=NN1C(=O)OC(C)(C)C (stereo unspecified)	> 209 µM	28.8	
O=C(CC(C(=O)c1ccco1)c1ccco1)c1ccco1 (stereo unspecified)	> 200 µM	145	
